Laboratory results reported in patent EP0029697A1, “Pharmaceutical compositions for the treatment of neoplastic diseases and process therefor” (Gosalvez, Mario Gosalvez, priority 1979, dated 1981).

Key:
[1] = test system: advanced metastastic bladder cancer; assay: Clinical trial in patients with advanced metastatic bladder cancer; type: in vivo, humans
Method: Clinical trials with 2-amino-2-thiazoline hydrochloride have been conducted on 9 patients suffering from advanced metastastic bladder cancer, not amenable to any other treatment.
Only patients with measurable and progressing bladder tumors and lung metastases the growth rate of which was measured weekly in X-ray plates for serveral weeks before beginning the treatment were admitted to the trial. The development of the bladder tumors was measured by cytos- copy after biopsy.
Each of the patients were intravenously administered 2-amino-2-thiazoline-hydrochloride, as an aqueous solution (25-75 mg/ml) at the dose of 1.5 mg/kg of body weight on a daily basis per 5 days, every three weeks (the first 5 patients), and at dose of 3 mg/kg daily per 5 days every three weeks (the following 4 patients).

[2] = Toxicity to humans; type: in vivo; conditions: doses up to at least 100 mg/kg
Method: 2-amino-2-thiazoline and 2-amino-2-thiazoline hydrochloride are also non-toxic to humans in doses up to at least 100 mg/kg. Therefore, the dosage administered can vary over a wide range, without concern that undesirable side-effects will result from large dosages.

[3] = test system: Hela cells; assay: Restoration of contact inhibition in colonies of Hela cells; type: cell-based, human
Method: Hela cells, a type of cell derived from human uterine tumor, were seeded in Eagle culture flasks at the concentration of 50 cells/cm^2. The cells were allowed to develop colonies during a period of 10 days with two changes of the medium on the second and sixth day. A tissue culture (minimum essential medium of Eagle with 10% calf serum) comprising amino acids, vitamins and glucose was employed.
2-Amino-2-thiazoline, obtained by treatment of the hydrochloride with a molar equivalent of sodium hydroxide, was added to the medium at varying concentrations on both the second day and the sixth day, after the initiation of the culture. A total of 3 flasks containing the cultured colonies were used for each concentration of 2-amino-2-thiazoline employed. On the tenth day, the cells were fixed in neutral formol and were stained with hematoxyline. A total of 500 colonies of the same size in each flask were counted at random and the percentage of colonies with contact inhibition (planar morphology) or without contact inhibition (pyrimidal or acuminated morphology) were noted.

[4] = test system: Leukemia 1210; assay: Effect on mouse tumors: survival time, leukemia 1210; type: in vivo; conditions: mice inoculated with leukemia 1210
Method: (§1) The effect of 2-amino-2-thiazoline on mouse tumors (le'ukemia 1210 and Lewis Lung carcinoma) was also tested. […] However, it is knwon that the cells associated with those tumors are extremely undifferentiated from normal cells so as to have lost all or nearly all of the cytoskeletal system of contractile microfilaments. Such cells would be expected to be insensitive to agents which induce reverse transformation. Leukemia 1210 and Lewis Lung carcinoma are transplantable tumors and, upon transplantation, they have lost the tissue specific membrane receptors which are the target of 2-amino-2-thiazoline.

[5] = test system: Lewis Lung carcinoma; assay: Effect on mouse tumors: survival time, Lewis Lung carcinoma; type: in vivo; conditions: mice inoculated with Lewis Lung carcinoma
Method: as §1

[6] = test system: bladder tumor receptor; assay: Preliminary study of biochemical affinity with tumor membrane receptors (bladder); type: binding
Source text: (§2) The preceding description is but illustrative of the practice of the invention and it is to be understood that other expedients may be employed by those skilled in the art without departure from the scope of the invention. Data on human tumors have been provided for bladder cancer because in a preliminary study of the biochemical affinity of 2-amino-2-thiazoline with tumor membrane receptors, the affinity with the bladder tumor receptor was very high. […] Therefore, it is claimed that 2-amino-2-thiazoline is an antitumor agent for mammalian cancer acting without toxicity by inducing reverse transformation.

[7] = test system: other tumor receptors of different tissue origin; assay: Preliminary study of biochemical affinity with tumor membrane receptors (other tissues); type: binding
Source text: as §2

[8] = test system: tumors of various origins; assay: Preliminary clinical trial in tumors of various origins; type: in vivo
Source text: as §2

[9] = patient 1, bladder carcinoma, lesion lung and bladder, total dose 2.5 gr, i.v. 1.5 mg/kg daily per 5 days every three weeks
[10] = patient 2, bladder carcinoma, lesion lung and bladder, total dose 3.2 gr, i.v. 1.5 mg/kg daily per 5 days every three weeks
[11] = patient 3, bladder carcinoma, lesion lung and bladder, total dose 2.8 gr, i.v. 1.5 mg/kg daily per 5 days every three weeks
[12] = patient 4, bladder carcinoma, lesion bladder, total dose 3.7 gr, i.v. 1.5 mg/kg daily per 5 days every three weeks
[13] = patient 5, bladder carcinoma, lesion lung and bladder, total dose 4.9 gr, i.v. 1.5 mg/kg daily per 5 days every three weeks
[14] = patient 6, bladder carcinoma, lesion bladder, total dose 12 gr, i.v. 3 mg/kg daily per 5 days every three weeks
[15] = patient 7, bladder carcinoma, lesion lung and bladder, total dose 9.6 gr, i.v. 3 mg/kg daily per 5 days every three weeks
[16] = patient 8, bladder carcinoma, lesion lung and bladder, total dose 11.8 gr, i.v. 3 mg/kg daily per 5 days every three weeks
[17] = patient 9, bladder carcinoma, lesion lung and bladder, total dose 10.8 gr, i.v. 3 mg/kg daily per 5 days every three weeks
[18] = 1 μMol, added on day 2 and day 6, read on day 10
[19] = 2 μMol, added on day 2 and day 6, read on day 10
[20] = 5 μMol, added on day 2 and day 6, read on day 10
[21] = 10 μMol, added on day 2 and day 6, read on day 10
[22] = 20 μMol, added on day 2 and day 6, read on day 10

Cl.NC1=NCCS1 [2-Amino-2-thiazoline·HCl, 2-amino-2-thiazoline hydrochloride]
Toxicity ([1]; all 9 patients, i.v. 1.5 or 3 mg/kg daily per 5 days every three weeks): None of the patients showed any toxicity | objective responses (mor than 50% reduction of tumor size) ([1]; number of responders out of the 9 cases, combined area of lung metastasis and size of the cystoscopic lesion): 4 | Response [1, 9]: complete remission | Toxicity [1, 9]: none | Response [1, 10]: partial remission | Toxicity [1, 10]: none | Response [1, 11]: complete remission | Toxicity [1, 11]: none | Response [1, 12]: stabilization | Toxicity [1, 12]: none | Response [1, 13]: stabilization | Toxicity [1, 13]: none | Response [1, 14]: complete remission | Toxicity [1, 14]: none | Response [1, 15]: complete remission | Toxicity [1, 15]: none | Response [1, 16]: stabilization | Toxicity [1, 16]: none | Response [1, 17]: stabilization | Toxicity [1, 17]: none | Toxicity [2]: non-toxic

NC1=NCCS1 [2-Amino-2-thiazoline]
Colonies without contact inhibition [3, 18]: 42% | Total number of colonies [3, 18]: 100% | Colonies with contact inhibition ([3]; 1 μMol, added on day 2 and day 6, read on day 10, 500 colonies per flask): 58% | Colonies with contact inhibition [3, 19]: 59% | Colonies without contact inhibition [3, 19]: 41% | Total number of colonies [3, 19]: 100% | Colonies with contact inhibition [3, 20]: 75% | Colonies without contact inhibition [3, 20]: 25% | Total number of colonies [3, 20]: 85% | Colonies with contact inhibition [3, 21]: 86% | Colonies without contact inhibition [3, 21]: 14% | Total number of colonies [3, 21]: 75% | Colonies with contact inhibition ([3]; 20 μMol (maximum dosage), added on day 2 and day 6, read on day 10): 100% | Colonies without contact inhibition [3, 22]: 0% | Total number of colonies [3, 22]: 45% | Toxicity [2]: non-toxic | increasing the survival time of the mice [4]: completely inactive | increasing the survival time of the mice [5]: completely inactive | biochemical affinity with tumor membrane receptors [6]: very high | affinity for other tumor receptors [7]: shown affinity | clinical response [8]: stabilization and minor remissions
